25 compounds from patent US6147097A, “Imidazole derivatives as anti-HIV agents” (Shionogi & Co., Ltd., priority 1994, dated 2000) can be followed below.

Data set [1] can be described thus: cytotoxicity in MT-4 cells (MTT, culture medium in place of HIV). Type of data set: cell-based. As to conditions: human. How it is done: (§1) The anti-HIV activity of each of the compounds produced in Examples was assayed by the following procedures. (1) Human T cell line MOLT-4 clone 8 persistently infected by HIV (HTLV-IIIB strain) was cultured in an RPMI-1640 medium supplemented with 10% fetal calf serum, the culture supernatant was filtered, and the titer of virus was determined; the culture supernatant was stored at -80° C. On the other hand, the test compound was diluted with the above culture medium to predetermined concentrations and distributed in 50 μl aliquots into a 96-well microtiter plate. Then, d suspension of MT-4 cells was added in 100 μl aliquots (3.5×10^4 cells per well) and then the above HIV-containing supernatant diluted with the above culture medium was added, 50 μl (60 pfu (plaque forming units)) per well. (2) The plate was incubated in a CO2 incubator at 37° C. for 5 days. Then, 30 μl/well of 3-(4,5-dimethyl thiazol-2-yl)-2,5-diphenyltetrazolium bromide (MTT) (5 mg/ml PBS) was added and the incubation was further continued for 1 hour. The surviving cells reducing MTT yield precipitation of formazan. Therefore, 150 μl portions of the culture supernatant were removed from all wells and, instead, 150 μl of a solution (10% Triton X-100 and 0.4% (v/v) HCl-added isopropyl alcohol) was added. The plate was shaken on a plate mixer to dissolve the formazan. The OD of formazan was measured with a microreader at 560 nm arid 690 nm (reference wavelength) and the result was compared with that of control.
The cytotoxicity of each of the compounds produced in Examples was assayed. In place of the HIV-containing supernatant (the virus suspension) in (1) in Test Example 1, 50 μl of the culture medium was added to each well, and the cytotoxicity was determined in the same manner as that for (2) in Test Example 1.

Data set [2] deals with HIV (HTLV-IIIB strain). Put plainly: microbe, parasite or virus in culture. As to conditions: Human immunodeficiency virus 1, IIIB, MT4, 120 h. Type of data set: cell-based. How it is done: as §1, with “(1) Human T cell line MOLT-4 clone 8 persistently infected by HIV (HTLV-IIIB strain) was cultured in an RPMI-1640 medium supplemented with 10% fetal calf serum, the culture supernatant was filtered, and the titer of virus was determined; the culture supernatant was stored at -80° C.” left out, “formazan.” for “formazan. The OD of formazan was measured with a microreader at 560 nm arid 690 nm (reference wavelength) and the result was compared with that of control.”

The target in data set [3] is T1, purified recombinant HIV-1 reverse transcriptase (Human immunodeficiency virus type 1 group M subtype B, UniProt P04585).
T1 construct: purified recombinant HIV-1 reverse transcriptase; made in house; host or cells: Escherichia coli
The experiment in a line: reverse transcriptase inhibition, poly(rA)/(dT) template primer, [3H]dTTP uptake. Type of data set: biochemical. How it is done:
The reverse transcriptase activity of each of the compounds synthesized in Examples was assayed by the following procedures.
Using the purified recombinant HIV-1 reverse transcriptase RT, E.C. 2.7.7.49) obtained by expression in Escherichia Coli, a 96-well plate assay system was established for assaying a large number of samples. The RT inhibitory activity was determined as follows. To 11 μl of a solution of the test inhibitor in water or MSO was added 100 μl of a reaction mixture (0.1 unit/100 μl RT, 50 mM Tris-HCl pH 8.3, 150 mM KCl, 10 mM MgCl2, 3 mM dithiothreitol, 0.1% Nonidet P-40, 10 μg/ml. poly(rA) and 10 μg/ml (dT)12-1.8 as template and primer, and 4 μM dTTP, 1 μCi/100 μl [^3 H]dTTP as substrate) and the mixture was incubated at 37° C. for 1 hour and, then, immediately cooled on ice. Using a cell harvester, the reaction mixture was transferred to a DEAE-filter mat (LKB-Pharmacia). Then, using the wash line of the cell harvester, the cells were washed twice with 5% Na2 HPO4 /H2 O and once with water and dried at 95° C. for 15 minutes. […] The inhibitory activity was expressed in percent inhibition relative to the uptake on water or DMSO control.

Where [4] appears, read: MT-4 cells, no virus, 37° C., 5 days, MTT, Table 3, read-out: CC50.
Where [5] appears, read: MT-4 cells, 60 pfu HIV per well, 37° C., 5 days, MTT, Tables 1 and 2, read-out: EC50.

Converted amounts (≈) assume the structure as drawn. Structures can show the parent of a compound that is named as a salt. Where two headings read alike, the source gives them in different places. Bounds are passed on as bounds.

Turning to `CC(C)c1nc(CN)n(C)c1[S+]([O-])c1cc(Cl)cc(Cl)c1` (centres unmarked) [Compound I-110, 2-aminomethyl-5-(3,5-dichlorophenylsulfinyl)-4-isopropyl-1-methyl-1H-imidazole], the CC50 at 120 h in data set [1] (setting [4]) was 10 to 100 µg/mL (≈ 28.9 to 289 µM). The EC50 in data set [2] (setting [5]) came out at 10 µg/mL (≈ 28.9 µM).

Take `CC(C)c1nc(CO)[nH]c1[S+]([O-])c1cc(Cl)cc(Cl)c1` (centres unmarked) [Compound I-113, [5-(3,5-dichlorophenylsulfinyl)-4-isopropyl-1H-imidazol-2-yl]methanol]: the CC50 at 120 h in data set [1] (setting [4]) was found to be 100 µg/mL (≈ 300 µM). In addition, the EC50 in data set [2] (setting [5]) worked out at 100 µg/mL (≈ 300 µM).

For `CC(C)c1c(Sc2cc(Cl)cc(Cl)c2)nc(COCCOC(N)=O)n1C` [Compound I-65], the half-maximal inhibitory concentration (IC50) in data set [3] is above 239 µM. Moreover, the 50% cytotoxic concentration (CC50) at 120 h in data set [1] (setting [4]) fell in the range of 12.5 to 25 µg/mL (≈ 29.9 to 59.8 µM).

For `CC(C)c1nc(COC(N)=O)n(Cc2ccc[nH]c2=O)c1Sc1cc(Cl)cc(Cl)c1` [Compound I-132, 2-carbamoyloxymethyl-5-(3,5-dichlorophenylthio)-1-(2-oxo-1,2-dihydro-pyridin-3-yl)methyl-4-isopropyl-1H-imidazole], in data set [3], the IC50 is 1.39 µM. The CC50 at 120 h in data set [1] (mt-4 cells) lay within 12.5 to 25 µg/mL (≈ 26.7 to 53.5 µM).

Turning to “[5-(3,5-dichlorophenylthio)-1-(1-fluoroethyl)-4-isopropyl-1H-imidazol-2-yl]methanol [Compound I-35]”, the “RT IC50” value in data set [3] (pH 8.3, 37° C., 1 hour, Tables 5 and 6) stood at 0.69 µg/mL.

On to `CC(C)c1nc(CO)[nH]c1S(=O)(=O)c1cc(Cl)cc(Cl)c1` [Compound I-114, [5-(3,5-dichlorophenylsulfonyl)-4-isopropyl-1H-imidazol-2-yl]methanol], for which the CC50 at 120 h in data set [1] (setting [4]) is 10 to 100 µg/mL (≈ 28.6 to 286 µM). For the same compound, the EC50 in data set [2] (setting [5]) came out at 10 µg/mL (≈ 28.6 µM).

Consider `CC(C)c1nc(CO)n(C)c1S(=O)(=O)c1cc(Cl)cc(Cl)c1` [Compound I-109, [5-(3,5-dichlorophenylsulfonyl)-4-isopropyl-1-methyl-1H-imidazol-2-yl]methanol], for which, in data set [1] (setting [4]), the CC50 at 120 h was above 100 µg/mL. Also, in data set [2] (setting [5]), the EC50 was 0.5 µg/mL (≈ 1.38 µM).

Turning to `CCCCCCCCCCCCn1c(CO)nc(C(C)C)c1Sc1cc(Cl)cc(Cl)c1` [Compound I-18, [5-(3,5-dichlorophenylthio)-1-dodecyl-4-isopropyl-1H-imidazol-2-yl]methanol], in data set [3], the IC50 was above 206 µM. Besides, the CC50 at 120 h in data set [1] (setting [4]) lay within 10 to 100 µg/mL (≈ 20.6 to 206 µM).

For `Cc1ccc(S(=O)(=O)NCc2nc(C(C)C)c(Sc3cc(Cl)cc(Cl)c3)n2C)cc1` [Compound I-88, 5-(3,5-dichlorophenylthio)-4-isopropyl-1-methyl-2-p-toluenesulfonylaminomethyl-1H-imidazole], the IC50 in data set [3] was above 206 µM. Besides, the CC50 at 120 h in data set [1] (setting [4]) is 1 to 10 µg/mL (≈ 2.06 to 20.6 µM).

For `CC(C)c1nc(CO)n(Cc2cccc(N)c2)c1Sc1cc(Cl)cc(Cl)c1` [Compound I-118, 1-(m-aminobenzyl)-5-(3,5-dichlorophenylthio)-2-hydroxymethyl-4-isopropyl-1H-imidazole], the IC50 in data set [3] is 2.13 µM. The CC50 at 120 h in data set [1] (mt-4 cells) lay in the range of 12.5 to 25 µg/mL (≈ 29.6 to 59.2 µM).

Take `CC(C)c1nc(COC(N)=O)n(C)c1[S+]([O-])c1cc(Cl)cc(Cl)c1` (centres unmarked) [Compound I-115, 2-carbamoyloxymethyl-5-(3,5-dichlorophenylsulfinyl)-4-isopropyl-1-methyl-1H-imidazole]: the CC50 at 120 h in data set [1] (setting [4]) fell in the range of 10 to 100 µg/mL (≈ 25.6 to 256 µM).

Consider `CC(=O)NCc1nc(C(C)C)c(Sc2cc(Cl)cc(Cl)c2)n1C` [Compound I-83], for which the 50% inhibitory concentration (IC50) in data set [3] is 218 µM. Moreover, in data set [1] (setting [4]), the CC50 at 120 h lay within 6.3 to 12.5 µg/mL (≈ 16.9 to 33.6 µM).

On to `CC(C)c1nc(CCOC(N)=O)n(Cc2ccccc2N)c1Sc1cc(Cl)cc(Cl)c1` [Compound I-144, l-(o-aminobenzyl)-2-(2-carbamoyloxyethyl)-5-(3,5-dichlorophenylthio)-4-isopropyl-1H-imidazole], for which the IC50 in data set [3] is above 209 µM. This compound also gave a CC50 at 120 h in data set [1] (mt-4 cells) of 6.3 to 12.5 µg/mL (≈ 13.1 to 26.1 µM).

In the case of `CC(=O)Nc1ccc(Cn2c(CO)nc(C(C)C)c2Sc2cc(Cl)cc(Cl)c2)cc1` [Compound I-117, 1-(p-N-acetylaminobenzyl)-5-(3,5-dichlorophenylthio)-2-hydroxymethyl-4-isopropyl-1H-imidazole], in data set [3], the IC50 is 8.18 µM. Moreover, half-maximal cytotoxicity in data set [1] (mt-4 cells) (CC50 at 120 h) was put at 50 µg/mL (≈ 108 µM).

Take `CC(C)c1nc(CN)n(C)c1S(=O)(=O)c1cc(Cl)cc(Cl)c1` [Compound I-111, 2-aminomethyl-5-(3,5-dichlorophenylsulfonyl)-4-isopropyl-1-methyl-1H-imidazole]: the CC50 at 120 h in data set [1] (setting [4]) lay within 1 to 10 µg/mL (≈ 2.76 to 27.6 µM).

Regarding `CC(C)c1nc(CNC(=O)C(F)(F)F)n(C)c1[S+]([O-])c1cc(Cl)cc(Cl)c1` (centres unmarked) [Compound I-112, 5-(3,5-dichlorophenylsulfinyl)-4-isopropyl-1-methyl-2-trifluoroacetylaminomethyl-1H-imidazole], the CC50 at 120 h in data set [1] (setting [4]) is above 100 µg/mL. In data set [2] (setting [5]), the concentration for a half-maximal effect (EC50) was above 100 µg/mL.

With `CC(C)c1nc(COC(N)=O)n(Cc2ccccn2)c1Sc1cc(Cl)cc(Cl)c1` [Compound I-93], in data set [1] (setting [4]), the CC50 at 120 h stood at 12.5 µg/mL (≈ 27.7 µM). The EC50 in data set [2] is 0.0005 to 0.001 µg/mL (≈ 0.00111 to 0.00222 µM).

On to `CCn1c(COC(N)=O)nc(C(C)C)c1Sc1cccc([N+](=O)[O-])c1` [Compound I-49, 2-carbamoyloxymethyl-1-ethyl-4-isopropyl-5-(3-nitrophenylthio)-1H-imidazole], for which the CC50 at 120 h in data set [1] (setting [4]) was 25 µg/mL (≈ 68.6 µM). The EC50 in data set [2] lay within 0.004 to 0.008 µg/mL (≈ 0.011 to 0.022 µM).

As for `CC(C)c1nc(COC(N)=O)n(Cc2ccccc2)c1Sc1cccc(Cl)c1` [Compound I-46, 1-benzyl-2-carbamoyloxymethyl-5-(3-chlorophenylthio)-4-isopropyl-1H-imidazole], the IC50 in data set [3] is 1.92 µM. Besides, the CC50 at 120 h in data set [1] (setting [4]) fell in the range of 12.5 to 25 µg/mL (≈ 30.1 to 60.1 µM).

For `CC(C)c1nc(CN)n(CF)c1Sc1cc(Cl)cc(Cl)c1` [Compound I-77, 2-aminomethyl-5-(3,5-dichlorophenylthio)-1-fluoromethyl-4-isopropylimidazole], the IC50 in data set [3] is 3.73 µM. The CC50 at 120 h in data set [1] (setting [4]) is 10 µg/mL (≈ 28.7 µM).

Take `CC(C)c1nc(CO)n(C)c1[S+]([O-])c1cc(Cl)cc(Cl)c1` (centres unmarked) [Compound I-108, [5-(3,5-dichlorophenylsulfinyl)-4-isopropyl-1-methyl-1H-imidazol-2yl]methanol]: the CC50 at 120 h in data set [1] (setting [4]) lay in the range of 10 to 100 µg/mL (≈ 28.8 to 288 µM). In addition, the EC50 in data set [2] (setting [5]) was determined as 1 µg/mL (≈ 2.88 µM).

With `CC(=O)OCCOCc1nc(Sc2cc(Cl)cc(Cl)c2)c(C(C)C)n1C` [Compound I-64, 2-[4-(3,5-dichlorophenylthio)-5-isopropyl-1-methyl-1H-imidazol-2-yl]methoxy} ethyl acetate], the IC50 in data set [3] is above 240 µM. For the same compound, the CC50 at 120 h in data set [1] (setting [4]) was in the range of 12.5 to 25 µg/mL.

For `CCCn1c(COC(N)=O)nc(C(C)C)c1Sc1cccc([N+](=O)[O-])c1` [Compound I-50, 2-carbamoyloxymethyl-4-isopropyl-5-(3-nitrophenylthio)-1-n-propyl-1H-imidazole], the CC50 at 120 h in data set [1] (setting [4]) is above 100 µg/mL. Also, in data set [2] (setting [5]), the EC50 was determined as 0.008 µg/mL (≈ 0.0211 µM).

For the compound `Cc1cc(C)cc(S(=O)(=O)c2c(C(C)C)nc(CO)n2C)c1` [Compound I-107, [5-(3,5-dimethylphenylsulfonyl)-4-isopropyl-1-methyl-1H-imidazol-2-yl]methanol], the IC50 in data set [3] was 194 µM. For the same compound, the CC50 at 120 h in data set [1] (setting [4]) was above 100 µg/mL.

For `CC(C)c1nc(CO)n(Cc2ccc(C(C)(C)C)cc2)c1Sc1cc(Cl)cc(Cl)c1` [Compound I-116, 1-(p-t-butylbenzyl)-5-(3,5-dichlorophenylthio)-2-hydroxymethyl-4-isopropyl-1H-imidazole hydrochloride], the IC50 in data set [3] was above 200 µM. Further, the CC50 at 120 h in data set [1] (mt-4 cells) was found to be 25 µg/mL.
